14 compounds from patent US20260191999A1, “COMPOUNDS AND THEIR USE” (KING'S COLLEGE LONDON, priority 2022, published 2026) can be followed below.

The subject of assay [1] is A549-WT and A549-KO-ALDH1A1 human lung cancer cells. Nature of the assay: Cell uptake of radiotracer, A549-WT vs A549-KO-ALDH1A1. Type of assay: cell-based. As to conditions: ALDH1A1 positive vs ALDH1A1 negative cell line. As to the method:
A549-KO-ALDH1A1 cells were obtained using an ALDH1A1 human gene knockout kit (Cat #KN400723) according to manufacturer's instructions (Origene, Rockville, MD, USA). Briefly, 3×10^5 A549 cells were seeded into a 6-well plate and maintained for 24 hours at 37° C., 5% CO2. Lipofectamine 3000 (Cat #L^3000, Invitrogen) was mixed with 1 μg of gRNA vector (pCas-guide) and 1 μg of donor template in Opti-MEM and added to cells for 16 hours. The next day, the transfection medium was removed and replaced with fresh medium. Forty-eight hours post-transfection, medium was replaced with fresh medium containing 0.5 μg/mL of puromycin (Cat #A1113803) which caused 100% cell death in non-transfected control cells after 5 days. Cells resistant to puromycin were subjected to clonal selection by the limiting dilution method. Knockout of protein was confirmed by western blots.
(§1) For cell uptake studies SKOV3-ip1 and SKOV3-TRip2, A549-WT, A549-KO-ALDH1A1, HEK293-WT and HEK293-ALDH1A1 cells were plated in 6 well plates 24 h prior to the studies, as described above (Western Blotting). One mL of fresh media containing 0.37 MBq of PQM-H-001 and 6 KBq PQM-H-002 was added to each well for the desired incubation time. At 40 min, plates were placed on ice, washed three times with ice-cold PBS to remove exogenous radioactivity and lysed in RIPA buffer ([…]; Fisher Scientific Ltd).
(§2) For all cell uptake and efflux study decay-corrected radioactivity in lysates was determined on a gamma counter ([…]; Wallac 1282 CompuGamma counter), with the remaining cell lysate centrifuged (21,000×g for 10 min at 4° C.) and the supernatant used to determine protein concentration following radioactive decay using a Pierce BCA assay. To quantify radiotracer uptake in cells, three standard solutions of the radioactivity-containing medium were counted on the gamma counter. Data were expressed as a percentage of total radioactivity administered to cells per mg of protein.
The following compounds were profiled in A549-WT (positive ALDH1A1) and A549-KO-ALDH1A1 (negative for ALDH1A1) human lung cancer cells as well as HEK293-WT (negative for ALDH1A1) and HEK293-ALDH1A1 (positive for ALDH1A1) human embryonic kidney cells. The fold difference in radiotracer retention for the ALDH1A1 positive cell lines as compared to the ALDH1A1 negative cell lines for each compound is shown in Table 2.

Assay [2] concerns HEK293-ALDH1A1 and HEK293-WT human embryonic kidney cells. The experiment in a line: Cell uptake of radiotracer, HEK293-ALDH1A1 vs HEK293-WT. Type of assay: cell-based. As to conditions: ALDH1A1 positive vs ALDH1A1 negative cell line. As to the method: HEK293 stably overexpressing ALDH1A1 were obtained by infecting cells with lentiviral particles containing the nucleotide sequences encoding for human ALDH1A1 (Origene RC200723L^4V LentiORF particles (mGFP-tagged)). Briefly, 1×10^4 HEK-293 cells were seeded into a 24-well plate and maintained for 24 hours at 37° C., 5% CO2. Cells were then infected with the lentiviral particles using a multiplicity of infection (MOI) of 10 in the presence of hexadimethrine bromide (6 μg/mL) (Sigma-Aldrich, St. Louis, MO, USA). The next day, medium was removed and replaced with fresh medium. At 36 h post-infection, medium was replaced with complete culture medium containing puromycin (1 μg/ml) which caused 100% cell death in non-transduced control cells after 5 days. Cells resistant to puromycin were subjected to clonal selection by the limiting dilution method. Overexpression of ALDH1A1 was confirmed by western blots and real-time PCR.
as §1
For all cell uptake and efflux study decay-corrected radioactivity in lysates was determined on a gamma counter ([…]; Wallac 1282 CompuGamma counter), with the remaining cell lysate centrifuged (21,000×g for 10 min at 4° C.) and the supernatant used to determine protein concentration following radioactive decay using a Pierce BCA assay. To quantify radiotracer uptake in cells, three standard solutions of the radioactivity-containing medium were counted on the gamma counter. Data were expressed as a percentage of total radioactivity administered to cells per mg of protein. […]

Assay [3] addresses T1, human recombinant ALDH1A1 (Homo sapiens, UniProt P00352).
T1 construct: purchased bio-techne
T1 sequence (P00352 1-501): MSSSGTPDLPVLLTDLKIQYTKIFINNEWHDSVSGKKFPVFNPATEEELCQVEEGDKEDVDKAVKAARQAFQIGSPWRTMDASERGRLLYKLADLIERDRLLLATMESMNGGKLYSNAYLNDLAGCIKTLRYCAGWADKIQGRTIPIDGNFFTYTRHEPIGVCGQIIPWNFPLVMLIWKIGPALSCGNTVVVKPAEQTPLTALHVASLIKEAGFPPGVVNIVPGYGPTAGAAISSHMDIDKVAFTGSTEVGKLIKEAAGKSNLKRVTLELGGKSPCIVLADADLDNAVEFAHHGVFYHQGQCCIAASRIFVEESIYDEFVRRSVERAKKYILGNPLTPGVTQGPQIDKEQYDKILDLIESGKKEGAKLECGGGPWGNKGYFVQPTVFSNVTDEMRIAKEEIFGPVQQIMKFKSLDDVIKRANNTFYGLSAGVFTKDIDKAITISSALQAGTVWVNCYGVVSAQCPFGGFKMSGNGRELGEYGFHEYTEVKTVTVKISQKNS
Nature of the assay: ALDH activity colorimetric assay (Biovision), ALDH1A1. Type of assay: biochemical. As to conditions: Table 1, class symbols. As to the method:
ALDH substrate kinetics were measured using an ALDH activity colorimetric assay kit (Biovision) according to the manufacturer's instructions. 1 μg/well human recombinant ALDH1A1 (bio-techne), ALDH2 (abcam), or ALDH3A1 (ATGen Co., Ltd) were used. The assay was initiated by the addition of enzyme after all reagents were pre-warmed to 37° C. Plates were read in kinetic mode on a Multiskan FC plate reader (Thermo Scientific) at 450 nm over 40 min at 37° C.
The in vitro potency of the cold, non-radioactive reference compound compared against two different ALDH isoforms, ALDH1A1 and ALDH2 (using the ALDH activity colorimetric assay Kit (Biovision)).
Other reference compounds (PQM-C) were compared against ALDH1A1 (using the ALDH activity colorimetric assay Kit (Biovision)).

For assay [4], the system named is SKOV3-TRip2 and SKOV3-ip1 cells. Nature of the assay: Cell uptake of radiotracer, drug-resistant vs drug-sensitive SKOV3 cells. The assay is classed as cell-based, human. As to the method: as §1, §2
Next, the time-dependent uptake of the of the radiotracers PQM-H-001 ([^18F]PQM-H-001) and PQM-H-002 ([^125I]PQM-H-002) was profiled in drug-resistant SKOV3-Trip2 and drug-sensitive SKOV3-ip1 cell lines (Pereira, R., et al. 2019).

With `CS(=O)(=O)N1CCN(C(=O)c2cnc3c([125I])cccc3c2-c2ccc(C3(C#N)CC3)cc2)CC1` [PQM-H-017, 1-(4-(8-(fluoro-^125I)-3-(4-(methylsulfonyl)piperazine-1-carbonyl)quinolin-4-yl)phenyl)cyclopropane-1-carbonitrile], the “fold difference in radiotracer retention, A549-WT vs A549-KO-ALDH1A1” value (shortened to “fold difference … vs A549-KO-ALDH1A1”) in assay [1] is listed as 16 fold. Also, the “fold difference in radiotracer retention, HEK293-ALDH1A1 vs. HEK293-WT” value (“fold difference … HEK293-ALDH1A1 vs. HEK293-WT” for short) in assay [2] is 6 fold.
On to `CS(=O)(=O)N1CCN(C(=O)c2cnc3ccccc3c2N2CCC(C#N)(c3ccc(I)cc3)CC2)CC1` [PQM-C-027, 4-(4-iodophenyl)-1-(3-(4-(methylsulfonyl)piperazine-1-carbonyl)quinolin-4-yl)piperidine-4-carbonitrile], for which the IC50 in assay [3] is 100 to 1000 nM.
`CS(=O)(=O)N1CCN(C(=O)c2cnc3c(F)cccc3c2-c2ccc(C3(C#N)CC3)cc2)CC1` [PQM-C-016, 1-(4-(8-Fluoro-3-(4-(methylsulfonyl)piperazine-1-carbonyl)quinolin-4-yl)phenyl)cyclopropane-1-carbonitrile]: the IC50 in assay [3] fell in the range of 10 to 100 nM.
In the case of `CS(=O)(=O)N1CCN(C(=O)c2cnc3c([N+](=O)[O-])cc([125I])cc3c2-c2ccc(C3(C#N)CC3)cc2)CC1` [PQM-H-007, 1-(4-(6-(iodo-^125I)-3-(4-(methylsulfonyl)piperazine-1-carbonyl)-8-nitroquinolin-4-yl)phenyl)cyclopropane-1-carbonitrile], in assay [1], the “fold difference … vs A549-KO-ALDH1A1” value is 17 fold. Also, the “fold difference … HEK293-ALDH1A1 vs. HEK293-WT” value in assay [2] is on record as 2 fold.
Consider `CS(=O)(=O)N1CCN(C(=O)c2cnc3ccccc3c2-c2ccc(C3(C#N)CC3)c(F)c2)CC1` [PQM-C-021], for which the IC50 in assay [3] is not above 10 nM.
Regarding `CS(=O)(=O)N1CCN(C(=O)c2cnc3ccccc3c2-c2ccc(C3(C#N)CC3)c(I)c2)CC1` [PQM-C-022, 1-(2-Iodo-4-(3-(4-(methylsulfonyl)piperazine-1-carbonyl)quinolin-4-yl)phenyl)cyclopropane-1-carbonitrile], the IC50 in assay [3] fell in the range of 1000 to 10000 nM.
The same measure, in the same setting: under `CS(=O)(=O)N1CCN(C(=O)c2cnc3cc(I)ccc3c2-c2ccc(C3(C#N)CC3)cc2)CC1` [PQM-C-012, 1-(4-(7-Iodo-3-(4-(methylsulfonyl)piperazine-1-carbonyl)quinolin-4-yl)phenyl)cyclopropane-1-carbonitrile] stands 10 to 100 nM.
As to `CS(=O)(=O)N1CCN(C(=O)c2cnc3ccccc3c2-c2ccc(C3(C#N)CC3)c([125I])c2)CC1` [PQM-H-022, 1-(2-(fluoro-^125I)-4-(3-(4-(methylsulfonyl)piperazine-1-carbonyl)quinolin-4-yl)phenyl)cyclopropane-1-carbonitrile], in assay [1], the “fold difference … vs A549-KO-ALDH1A1” value amounted to 6 fold.
As to `CS(=O)(=O)N1CCN(C(=O)c2cnc3c(I)cccc3c2-c2ccc(C3(C#N)CC3)cc2)CC1` [PQM-C-017, 1-(4-(8-Iodo-3-(4-(methylsulfonyl)piperazine-1-carbonyl)quinolin-4-yl)phenyl)cyclopropane-1-carbonitrile], in assay [3], the IC50 lay within 10 to 100 nM.
The same measure, in the same setting: under `CS(=O)(=O)N1CCN(C(=O)c2cnc3c([N+](=O)[O-])cc(I)cc3c2-c2ccc(C3(C#N)CC3)cc2)CC1` [PQM-C-007, 1-(4-(6-Iodo-3-(4-(methylsulfonyl)piperazine-1-carbonyl)-8-nitroquinolin-4-yl)phenyl)cyclopropane-1-carbonitrile] stands 10 to 100 nM; under `CS(=O)(=O)N1CCN(C(=O)c2cnc3cc(F)ccc3c2-c2ccc(C3(C#N)CC3)cc2)CC1` [PQM-C-011, 1-(4-(7-Fluoro-3-(4-(methylsulfonyl)piperazine-1-carbonyl)quinolin-4-yl)phenyl)cyclopropane-1-carbonitrile], 10 to 100 nM.
For `CS(=O)(=O)N1CCN(C(=O)c2cnc3c([N+](=O)[O-])cc(F)cc3c2-c2ccc(C3(C#N)CC3)cc2)CC1` [PQM-C-006, 1-(4-(6-Fluoro-3-(4-(methylsulfonyl)piperazine-1-carbonyl)-8-nitroquinolin-4-yl)phenyl)cyclopropane-1-carbonitrile], in assay [3], the IC50 was in the range of 10 to 100 nM.
Take `CS(=O)(=O)N1CCN(C(=O)c2cnc3ccccc3c2N2CCC(C#N)(c3ccc(F)cc3)CC2)CC1` [PQM-C-026, 4-(4-fluorophenyl)-1-(3-(4-(methylsulfonyl)piperazine-1-carbonyl)quinolin-4-yl)piperidine-4-carbonitrile]: the IC50 in assay [3] was not above 10 nM.
As for `CS(=O)(=O)N1CCN(C(=O)c2cnc3ccc([125I])cc3c2-c2ccc(C3(C#N)CC3)cc2)CC1` [PQM-H-002, 1-(4-(6-(iodo-^125I)-3-(4-(methylsulfonyl)piperazine-1-carbonyl)quinolin-4-yl)phenyl)cyclopropane-1-carbonitrile], the “Radiotracer retention, drug resistant versus drug-sensitive cells” value in assay [4] was 200 times higher. Besides, the “fold difference … vs A549-KO-ALDH1A1” value in assay [1] was determined as 40 fold. In assay [2], the “fold difference … HEK293-ALDH1A1 vs. HEK293-WT” value stood at 56 fold.

The term IC50 denotes the point on the concentration scale where inhibition reaches its midpoint.
